Patent US11891601B2, “Method to enhance the transcription regulation of SUPT4H on genes containing repetitive nucleotide sequences” (National Yang-Ming University, priority 2018, dated 2024)
pIC50: −log10 of the molar value.

Columns and labels:
[1] = system: human RNases H; settings: Budihas et al, 2005; read-out: IC50, inhibition of enzymatic activity of human RNases H; cited from earlier work
[2] = system: R-loops on (CAG)n-eGFP in ST14A cells; assay: RNA/DNA immunoprecipitation (DIP) assay of R-loops in ST14A cells expressing Q7-GFP or Q81-GFP; type: cell-based, rat; settings: ST14A tet cells, tropolone 60 μM for 12 hours
Procedure: Yeast cells were collected after culturing in 2% galactose-containing medium for 12 hours, and then grinded by glass beads in the presence of 300 μl extraction buffer (10 mM Tris-HCl pH 8.0, 10 mM EDTA, 200 mM NaCl, 1% SDS, 2% Triton X-100, 25 units RNase inhibitor). The nucleic acid mixture was subjected to sonication (Bioruptor UCD-200) and extracted by phenol (pH 8.0). Purified chromatin DNA and RNA, with or without RNase H treatment for 90 minutes, was precipitated by monoclonal antibody S9.6 bound to protein G agarose beads. […] The RNA/DNA hybrid (R-loop) signal was analyzed by qPCR and the Quantitative-Comparative CT (MCT) program. In yeast experiments, a pair of primers (Primer-B F and Primer-B R) were used to quantify R-loop signal in the vicinity of CAG repeats and the primer set AMP was used as a control. […] For Hdh^Q7/Q7 and Hdh^Q111/Q111, mouse HTT DIP primer set was used to quantify R-loop signal of the CAG repeating region and Tubal a DIP primer set was included as a control. […]
Please refer to FIG. 6. […] A relative high signal of R-loops was detected in (CAG)7-eGFP, but this signal is not increased by tropolone. […] RNA was extracted and analyzed by real-time RT-qPCR to measure the quantity of (CAG)n-GFP, SUPT4H and snRNA U6. […]

## O=c1cccccc1O [Tropolone]
[1]
  pIC50: 5.24
[2]; long repeat
  R-loop signal by DIP assay, (CAG)8i-eGFP: significantly increased
[2]; short repeat (CAG)7-eGFP
  R-loop signal by DIP assay, (CAG)7-eGFP: not increased
